The values below come from US9415055B2, “Cyclic amines” (H. Lundbeck A/S, priority 2012, dated 2016).

The target of the test is P2X7 receptor (Homo sapiens (Human), UniProt Q99572). Briefly: P2X7 FLIPR assay: antagonism of BzATP response in 293 HEK cells stably expressing P2X7 receptor. Type of test: cell-based. Conditions: FLIPR fluorescence (Fluo-4), agonist BzATP, 293 HEK cells stably transfected with P2X7 receptor. As to the method: Cells were plated to cell density of approximately 15,000 cells/well in 384-well assay plates (50 μl/well) with 1.5% low serum media (DMEM, 1.5% BCS, 1% L-glut (2 mM), 1% P/S).
Cells were plated to cell density of approximately 15,000 cells/well in 384-well assay plates (50 μl/well) with 1.5% low serum media (DMEM, 1.5% FBS, 1% L-glut (2 mM), 10 mM HEPES, 1% P/S). Cells were plated 24 hours prior to assay. Cells expressing human, rat or mouse P2X7 receptor were assayed in the following manner.
Fluo-4 NW dye mix (Molecular Probes, Inc., Eugene, Oreg., USA) was prepared in buffer (see manufacturer's instructions). Cell plates were removed from the 37° C. incubator, the media discarded and then 30 μL of dye was added to each well. Plates were placed in the 37° C., non-CO2 incubator for 30 minutes and then room temperature for 30 minutes.
Compound mixtures (A) were added to assay plates containing cells and placed at room temperature for 30 minutes, then BzATP (B) was added. Fluorescence was read using the Tetra FLIPR® (Molecular Devices, Inc., Sunnyvale, Calif., USA) and IC50 values were calculated by standard methods to determine antagonist activity.

P2X7 receptor, sequence (Q99572 whole entry): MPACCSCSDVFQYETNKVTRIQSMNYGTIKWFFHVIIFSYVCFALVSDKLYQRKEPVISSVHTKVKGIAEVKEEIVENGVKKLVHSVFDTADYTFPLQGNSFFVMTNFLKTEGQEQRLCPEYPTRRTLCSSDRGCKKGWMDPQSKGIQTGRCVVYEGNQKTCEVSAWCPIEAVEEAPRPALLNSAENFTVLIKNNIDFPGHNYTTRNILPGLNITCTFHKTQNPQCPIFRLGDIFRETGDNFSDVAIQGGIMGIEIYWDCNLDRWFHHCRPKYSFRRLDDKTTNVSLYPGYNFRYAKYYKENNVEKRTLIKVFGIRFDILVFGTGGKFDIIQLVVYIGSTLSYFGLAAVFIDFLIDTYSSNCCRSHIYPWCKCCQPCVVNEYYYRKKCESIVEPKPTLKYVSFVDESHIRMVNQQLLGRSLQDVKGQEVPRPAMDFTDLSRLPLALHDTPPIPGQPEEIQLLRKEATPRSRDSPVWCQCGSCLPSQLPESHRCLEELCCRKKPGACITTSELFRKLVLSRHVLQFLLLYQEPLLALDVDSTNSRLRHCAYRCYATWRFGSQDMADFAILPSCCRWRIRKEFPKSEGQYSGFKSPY

For orientation: IC50 means the midpoint of a concentration-inhibition curve. Read a high IC50 as a need for much substance. In turn, `CC1(C)CCN(C(CNC(=O)c2cccc(Cl)c2Cl)c2cnc(C(F)(F)F)nc2)CC1` (stereo not shown) [2,3-dichloro-N-(2-(4,4-dimethylpiperidin-1-yl)-2-(2-(trifluoromethyl)pyrimidin-5-yl)ethyl)benzamide] showed an IC50 of 2500 nM.

In turn, `O=C(NCC(c1ccc(C(F)(F)F)nc1)N1CCOCC1)c1cccc(Cl)c1Cl` (single isomer, unassigned; (-)) [(−)2,3-dichloro-N-[2-morpholino-2-[6-(trifluoromethyl)-3-pyr] [(−)2,3-Dichloro-N-[2-morpholino-2-[6-(trifluoromethyl)-3-pyridyl]ethyl]benzamide] registered an IC50 of 2 nM.

`Cc1ncc(C(CNC(=O)c2cccc(Cl)c2Cl)N2CCC(F)(F)CC2)cn1` (stereo not shown) [2,3-dichloro-N-[2-(4,4-difluoro-1-piperidyl)-2-(2-methylpyri] [2,3-dichloro-N-(2-(4,4-difluoropiperidin-1-yl)-2-(2-methylpyrimidin-5-yl)ethyl)benzamide] registered an IC50 of 4.3 nM.

`Cc1ncc(C(CNC(=O)c2c(Cl)cccc2Cl)N2CCCOCC2)cn1` (stereo not shown) [2,6-dichloro-N-(2-(2-methylpyrimidin-5-yl)-2-(1,4-oxazepan-4-yl)ethyl)benzamide] displayed an IC50 of 740 nM.

In turn, `COc1ccc(C(CNC(=O)c2cccc(Cl)c2Cl)N2CCCCC2)cc1` (stereo not shown) [2,3-Dichloro-N-[2-(4-methoxy-phenyl)-2-piperidin-1-yl-ethyl]-benzamide] had an IC50 of 350 nM.

In the case of `COc1ccc(F)c(C(=O)NCC(c2cnc(C(F)(F)F)nc2)N2CCC(F)(F)CC2)c1Cl` (single isomer, unassigned; (+)) [(+)2-chloro-N-[2-(4,4-difluoro-1-piperidyl)-2-[2-(trifluorom] [(+)2-chloro-N-(2-(4,4-difluoropiperidin-1-yl)-2-(2-(trifluoromethyl)pyrimidin-5-yl)ethyl)-6-fluoro-3-methoxybenzamide], the IC50 is 8.9 nM.

As to `O=C(NCC(c1cnc(C(F)(F)F)nc1)N1CCOCC1)c1ccccc1Cl` (single isomer, unassigned; (-)) [(−)2-chloro-N-[2-morpholino-2-[2-(trifluoromethyl)pyrimidin-] [(−)2-Chloro-N-[2-morpholino-2-[2-(trifluoromethyl)pyrimidin-5-yl]ethyl]benzamide], the IC50 was determined as 15 nM.

For the molecule `CS(=O)(=O)c1ccc(Cl)c(C(=O)NCC(c2ccc(Cl)cc2)N2CCOCC2)c1` (single isomer, unassigned; (-)) [(−)2-chloro-N-[2-(4-chlorophenyl)-2-morpholino-ethyl]-5-meth] [(−)2-chloro-N-(2-(4-chlorophenyl)-2-morpholinoethyl)-5-(methylsulfonyl)benzamide], the IC50 was determined as 65 nM. Compared with the last molecule, the IC50 is about 4.3-fold higher.

`O=C(NCC(c1cnc(C(F)(F)F)nc1)N1CCOCC1)c1ccc(Cl)cc1Cl` (stereo not shown) [2,4-dichloro-N-(2-morpholino-2-(2-(trifluoromethyl)pyrimidin-5-yl)ethyl)benzamide] displayed an IC50 of 12 nM.

Take `O=C(NCC(c1cnc(C(F)(F)F)nc1)N1CCC(F)(F)CC1)c1c(Cl)ccc(F)c1Cl` (single isomer, unassigned; (+)) [(+)2,6-dichloro-N-[2-(4,4-difluoro-1-piperidyl)-2-[2-(triflu] [(+)2,6-dichloro-5-fluoro-N-(2-(4,4-difluoropiperidin-1-yl)-2-(2-(trifluoromethyl)pyrimidin-5-yl)ethyl)benzamide]: the IC50 stood at 7.1 nM.

In turn, `O=C(NCC(c1cnc(C(F)(F)F)nc1)N1CCC(F)(F)CC1)c1ccc(Cl)cc1Cl` (single isomer, unassigned; (+)) [(+)2,4-dichloro-N-[2-(4,4-difluoro-1-piperidyl)-2-[2-(triflu] [(+)2,4-dichloro-N-(2-(4,4-difluoropiperidin-1-yl)-2-(2-(trifluoromethyl)pyrimidin-5-yl)ethyl)benzamide] gave an IC50 of 5.6 nM. The IC50 values of the last two molecules are within 1.5-fold of each other.

The molecule `Cc1ccccc1C(=O)NCC(c1ccc(F)cc1)N1CCOCC1` (stereo not shown) [N-[2-(4-Fluoro-phenyl)-2-morpholin-4-yl-ethyl]-2-methyl-benzamide] displayed an IC50 of 110 nM. This IC50 lies about 20-fold higher than the previous one.

Turning to `Cc1ncc(C(CNC(=O)c2ccccc2Cl)N2CCCOCC2)cn1` (stereo not shown) [2-chloro-N-(2-(2-methylpyrimidin-5-yl)-2-(1,4-oxazepan-4-yl)ethyl)benzamide], the IC50 amounted to 680 nM.

`O=C(NCC(c1ccc(C(F)(F)F)nc1)N1CCC(F)(F)CC1)c1cccc(F)c1Cl` (single isomer, unassigned; (-)) [(−)2-chloro-N-[2-(4,4-difluoro-1-piperidyl)-2-[6-(trifluorom] [(−)2-chloro-N-(2-(4,4-difluoropiperidin-1-yl)-2-(2-(trifluoromethyl)pyridin-5-yl)ethyl)-3-fluorobenzamide] showed an IC50 of 5.7 nM.

In the case of `Cc1ncc(C(CNC(=O)c2c(Cl)cccc2Cl)N2CCC(F)(F)CC2)cn1` (single isomer, unassigned; (-)) [(−)2,6-dichloro-N-[2-(4,4-difluoro-1-piperidyl)-2-(2-methylp] [(−)2,6-dichloro-N-(2-(4,4-difluoropiperidin-1-yl)-2-(2-methylpyrimidin-5-yl)ethyl)benzamide], the IC50 was determined as 22 nM.

For the molecule `O=C(NCC(c1ccc(C(F)(F)F)nc1)N1CCOCC1)c1c(F)cccc1F` (single isomer, unassigned; (+)) [(+)2,6-difluoro-N-[2-morpholino-2-[6-(trifluoromethyl)-3-pyr] [(+)2,6-Difluoro-N-[2-morpholino-2-[6-(trifluoromethyl)-3-pyridyl]ethyl]benzamide], the IC50 was found to be 29 nM.

The molecule `Cc1ncc(C(CNC(=O)c2cccc(F)c2Cl)N2CCCC(F)(F)C2)cn1` (single isomer, unassigned; (-)) [(−)2-chloro-N-[2-(3,3-difluoro-1-piperidyl)-2-(2-methylpyrim] [(−)2-chloro-3-fluoro-N-(2-(3,3-difluoropiperidin-1-yl)-2-(2-methylpyrimidin-5-yl)ethyl)benzamide] had an IC50 of 41 nM.

As to `COc1ccc(C(CNC(=O)c2ccccc2C)N2CCOCC2)cc1` (stereo not shown) [N-[2-(4-Methoxy-phenyl)-2-morpholin-4-yl-ethyl]-2-methyl-benzamide], the IC50 worked out at 500 nM.

In turn, `COC1CCN(C(CNC(=O)c2cccc(Cl)c2Cl)c2cnc(C)nc2)CC1` (stereo not shown) [2,3-dichloro-N-(2-(4-methoxypiperidin-1-yl)-2-(2-methylpyrimidin-5-yl)ethyl)benzamide] returned an IC50 of 3800 nM.

In turn, `O=C(NCC(c1ccc(C(F)(F)F)nc1)N1CCOCC1)c1c(F)cccc1Cl` (single isomer, unassigned; (+)) [(+)2-chloro-6-fluoro-N-[2-morpholino-2-[6-(trifluoromethyl)-] [(+)2-chloro-6-fluoro-N-(2-morpholino-2-(6-(trifluoromethyl)pyridin-3-yl)ethyl)benzamide] registered an IC50 of 32 nM.

Regarding `Cc1ncc(C(CNC(=O)c2cccc(Cl)c2Cl)N2CCOCC2)cn1` (stereo not shown) [2,3-dichloro-N-[2-(2-methylpyrimidin-5-yl)-2-morpholino-ethy] [2,3-Dichloro-N-[2-(2-methylpyrimidin-5-yl)-2-motpholino-ethyl]benzamide], the IC50 was 21 nM.

As to `O=C(NCC(c1cnc(C(F)(F)F)nc1)N1CCC(F)(F)CC1)c1c(Cl)cccc1Cl` (single isomer, unassigned; (+)) [(+)2,6-dichloro-N-[2-(4,4-difluoro-1-piperidyl)-2-[2-(triflu] [(+)2,6-dichloro-N-(2-(4,4-difluoropiperidin-1-yl)-2-(2-(trifluoromethyl)pyrimidin-5-yl)ethyl)benzamide], the IC50 is 4.7 nM.
